Test results reported in patent publication US12460346B2, “Lactam coated textile” (Conopco, Inc., priority 2018, dated 2025).

Assays:
C. albicans 3153A = test: Biofilm growth inhibition on lactam-based acrylic emulsion textiles by viability (AlamarBlue), Candida; type: cell-based, Candida albicans; details: acrylic emulsion coated with lactam, overnight, lower than 100 = reduction in biofilm growth
Method: (§1) P. aeruginosa (PA01), S. aureus (Newman's strain) were cultured overnight at 37° C. on TSA 5 plates. C. albicans […] was cultured for 2 days at 30° C. on MEA plates. Prior to use in tests, colonies of each organism were added to 20 mL of brain-heart infusion broth (BHI) containing 5 mL of glass beads and homogenised for 30 seconds. The optical density of each organism was measured and adjusted to give 1×10^7 cfu/mL. Inoculum (0.3 ml) was placed directly on acrylic emulsion coated cotton and PET textiles (with and without lactam) that have been previously positioned inside the wells of 6-well plates and incubated overnight in appropriate broth. Textiles were subsequently removed, washed in PBS and metabolism assessed by AlamarBlue on a plate reader. Data were presented as percentage of no-lactam control. A number lower than 100 indicates a reduction in microorganism biofilm growth for the lactam coated textile compared to uncoated textile.

P. aeruginosa (PA01) [1] = test: Biofilm growth inhibition on lactam-based acrylic emulsion textiles by viability (AlamarBlue), Pseudomonas; type: cell-based, Pseudomonas aeruginosa; details: for Mean biofilm metabolism (AlamarBlue): acrylic emulsion coated with lactam, overnight, lower than 100 = reduction in biofilm growth
Method: as §1

P. aeruginosa GFP = test: Pseudomonas Aeruginosa-GFP biofilm growth curve inhibition on lactam-based textiles by fluorescence; type: cell-based; details: lactam in acrylic emulsion binder, printed, or encapsulated and padded on textile; compared to textile without the lactam
Method: A fluorescent strain of P. aeruginosa was used to allow growth inhibition to be measured by fluorescence. P. aeruginosa GFP was cultured for 2 days at 30° C. on MEA plates. Prior to use in tests, colonies were added to 20 mL of brain-heart infusion broth (BHI) containing 5 mL of glass beads and homogenised for 30 seconds. The optical density was measured and adjusted to give 1×10^8 cfu/m. Subsequently, 0.5 mL of the strain in BHI broth was added to the wells of a 24 well plate containing the substrates. This was then placed in the plate reader and read every hour at […]. The experiment tested a control (textile without lactam coating, the sample (textile coated with lactam) and a positive control (chlorhexidine).

P. aeruginosa (PA01) [2] = test: Pseudomonas PAO1 biofilm inhibition on lactam-based textiles by SEM; type: cell-based, Pseudomonas aeruginosa; details: for Bacteria (pixels): SEM image; for % bacteria coverage: bacteria pixels/total pixels of SEM image
Method: P. aeruginosa (PA01) was cultured overnight at 37° C. on TSA plates. Prior to use in tests, colonies were added to 20 mL of brain-heart infusion broth (BHI) containing 5 mL of glass beads and homogenised for 30 seconds. The optical density of the organism was measured and adjusted to give 1×10^8 cfu/mL. Inoculum (0.3 ml) was placed directly on modified and unmodified textiles in 24-well plates and incubated overnight in appropriate broth. Textiles were subsequently removed, washed in PBS and fixed for microscopy.
Fixative was prepared as described (Erlandsen, Kristich, Dunny, Wells, J. Histochem Cytochem, 2004), using 2% para-formaldehyde, 2% gluteraldehyde and 0.15M Sodium Cacodylate and 0.15% Alcian Blue, pH 7.4. The fixative was applied (enough to cover the biofilms) to the wells containing the biofilms on suitable substrates for 2 hours, this varied between 2 and 22 hours.
Following fixation, the fixative solution was removed and 0.15M Sodium Cacodylate buffer was added to the samples. The samples were then stored in the fridge until processing. Samples were washed 3×5 mins with […] fresh buffer to remove any remaining glutaraldehyde. Subsequently, a solution of 1% Osmium tetroxide (OsO4) was prepared 1:1 with 0.15M Sodium Cacodylate buffer, and added to the samples before incubating for 1 hour at room temperature. Samples were rinsed with distilled water 3×10 mins. 0.5% aqueous Uranyl acetate was then added to the samples before incubation in the dark for 30 mins at room temperature.
Samples were then dehydrated in an ascending ethanol series:
Samples were transferred from the original 24-well plate into a petri dish of hexamethyldisilazane (HMDS) for 5 mins, then to a second dish for 5 mins before being placed in a new 24-well plate lined with filter paper. The plate was then placed in a desiccator overnight to allow evaporation and drying or samples.
After sputter coating with gold-palladium in an argon filled chamber, samples were viewed under a JEOL JSM-6400 scanning electron microscope and images were assembled using the Photoshop software.
The SEM images were measured and the amount of pixels of textile and pixels of bacteria were determined. The % of bacteria coverage is the bacteria pixels/total pixels.

[3] = test system: S. aureus (Newman's strain); test: Biofilm growth inhibition on lactam-based acrylic emulsion textiles by viability (AlamarBlue), Staphylococcus; type: cell-based, Staphylococcus aureus; details: acrylic emulsion coated with lactam, overnight, lower than 100 = reduction in biofilm growth
Method: as §1

Row | Structure (SMILES) | Mean biofilm metabolism (AlamarBlue) (C. albicans 3153A; Cotton) | Mean biofilm metabolism (AlamarBlue) (C. albicans 3153A; Polyethylene) | Mean biofilm metabolism (AlamarBlue) (P. aeruginosa (PA01) [1]; Cotton) | Mean biofilm metabolism (AlamarBlue) (P. aeruginosa (PA01) [1]; Polyethylene) | biofilm growth compared to textile with no coating (in words) (P. aeruginosa (PA01) [1]; polyethylene and cotton coated with lactam) | Pseudomonas Aeruginosa-GFP biofilm growth on the textile (fluorescence growth curve) (P. aeruginosa GFP) | Bacteria (pixels) (P. aeruginosa (PA01) [2]; polypropylene non-woven coated with lactam in acrylic emulsion, control textile 10,851) | % bacteria coverage (P. aeruginosa (PA01) [2]; polypropylene non-woven coated with lactam in acrylic emulsion, control textile 32.1%) | % bacteria coverage (P. aeruginosa (PA01) [2]; polypropylene non-woven coated with lactam in acrylic emulsion, control textile 32.1%, listed as lactam) | Bacteria (pixels) (P. aeruginosa (PA01) [2]; polypropylene non-woven printed with lactam in solvents, control textile 26,917) | % bacteria coverage (P. aeruginosa (PA01) [2]; polypropylene non-woven printed with lactam in solvents, control textile 62.6%) | % bacteria coverage (P. aeruginosa (PA01) [2]; polypropylene non-woven printed with lactam in solvents, control textile 62.6%, listed as lactam) | Bacteria (pixels) (P. aeruginosa (PA01) [2]; viscose non-woven padded with lactam in polyurea encaps, control textile 16,291) | % bacteria coverage (P. aeruginosa (PA01) [2]; viscose non-woven padded with lactam in polyurea encaps, control textile 47.8%) | % bacteria coverage (P. aeruginosa (PA01) [2]; viscose non-woven padded with lactam in polyurea encaps, control textile 47.8%, listed as lactam) | Mean biofilm metabolism (AlamarBlue) ([3]; Cotton) | Mean biofilm metabolism (AlamarBlue) ([3]; Polyethylene) | Bacteria (pixels) (P. aeruginosa (PA01) [2]; fluorinated polypropylene non-woven coated with cationic lactam, control textile 30,880) | % bacteria coverage (P. aeruginosa (PA01) [2]; fluorinated polypropylene non-woven coated with cationic lactam, control textile 78.0%) | % bacteria coverage (P. aeruginosa (PA01) [2]; fluorinated polypropylene non-woven coated with cationic lactam, control textile 78.0%, listed as Cationic Lactam)
1 | C=C1NC(=O)C=C1c1ccc(Cl)cc1 [lactam (488), 4-(4-chlorophenyl)-5-methylene-pyrrol-2-one] | 84.69 percentage of no-lactam control | 67.83 percentage of no-lactam control | 54.89 percentage of no-lactam control | 80.95 percentage of no-lactam control | reduction in Pseudomonas Aeruginosa biofilm growth | reduced Pseudomonas Aeruginosa-GFP biofilm growth | 2,660 pixels | 10.1% | 10.1% | 23,381 pixels | 48.0% | 48.0% | 1,806 pixels | 8.7% | 8.7% | 33.35 percentage of no-lactam control | 47.88 percentage of no-lactam control |  |  | 
2 | C=C1C(c2ccc(Cl)cc2)=CC(=O)N1CCC[N+](C)(C)C [lactam (488) (cationic)] |  |  |  |  |  |  |  |  |  |  |  |  |  |  |  |  |  | 15,864 pixels | 36.6% | 36.6%
